Source: PMC3838804, “Rapid Identification of Aldose Reductase Inhibitory Compounds from Perilla frutescens” (BioMed Research International, 2013)
pIC50: −log10 of the molar value. Read-outs that look alike come from different tables or passages of the source.

How the values were obtained:
[1] = target: rAR (rat lens aldose reductase) (Rattus norvegicus, UniProt P07943); test: Assay for rAR inhibitory activity (NADPH absorption decrease at 340 nm, DL-glyceraldehyde substrate); type: biochemical; details: for rAR inhibitory activity (in words): isolated compound; for pIC50: read-out: IC50 on rAR (isolated compounds)
Description: Crude rAR was prepared as follows. Rat lenses were removed from closed male Sprague-Dawley rats weighing 250–280 g and frozen until required. The rat lens homogenate was prepared according to Hayman and Kinoshita with some modifications [20, 21]. […] The partially purified material was separated into 1.0 mL aliquots and stored at 40°C. rAR activity was assayed spectrophotometrically by measuring the decrease in NADPH absorption at 340 nm over a 4 min period with dl-glyceraldehyde substrate. Each 1.0 mL cuvette contained equal units of the enzyme, 0.10 M sodium phosphate buffer (pH 6.2), and 0.3 mM NADPH, with or without 10 mM substrate and an inhibitor [22, 23].

rAR (aldose reductase) = target: T1, rAR (aldose reductase) (Rattus norvegicus, UniProt P07943); test: HPLC microfractionation combined with 96-well enzyme assay for rAR inhibition; type: biochemical; details: HPLC microfractions of EtOAc soluble fraction (10 μL of 10 mg/mL injected), 96-well plate; hit limit 18.49%
T1 construct: The rat lens homogenate was prepared according to Hayman and Kinoshita with some modifications; from tissue; host or cells: rat lens (male Sprague-Dawley rats)
Description: An automated fraction collector (Foxy 200; ISCO, Lincoln, NE, USA) coupled with HPLC equipment (Thermo Electron Spectra HPLC system; Thermo Separation Products, San Jose, CA, USA) was used to separate and collect compounds from extracts directly into 96-well plates (Nunc, Roskilde, Denmark) at 0.4 mL/well (Figure 1). […] The mobile phase, consisting of acetonitrile (ACN) and 0.1% aqueous trifluoroacetic acid (TFA), was used at a flow rate of 0.8 mL/min. The gradient elution program was 7.5–26.5% B (0–20 min), 26.5% B (20–30 min), 26.5–36% B (30–40 min), and 36–100% B (40–45 min). Injection volume was 10 μL at sample concentration 10 mg/mL and detection wavelength 280 nm. After collection, all fractions were evaporated to dryness using an EZ-2 plus evaporator (Gene Vac Ltd., Ipswich, UK).
The effect on rAR inhibitory activity (%) was calculated as the change in absorbance in a sample well versus the change in absorbance in a blank well (average, n = 12). Spontaneous hydrolysis was subtracted from the reaction rate. The hit limit was set at 3 standard deviations (SD) from the minimum AR inhibitory activity. Z′-factor, signal-to-background ratio (S/B), and signal-to-noise ratio(S/N) were used to evaluate the quality of the test: Z′ = 1[(3 × SDs + 3 × SDb)/|X s X b|], S/B = X s/X b, and S/N = (X s X b)/(SDs ^2 + SDb ^2)^1/2; X s and SDs are average and standard deviation of the signal, that is, absorption detected at the 8th measurement point in blank wells (n = 12) after adding the enzyme; X b and SDb are average and SD of the background, that is, absorption at the first measurement point in blank wells (n = 12) after adding the enzyme.
Crude rAR was prepared as follows. Rat lenses were removed from […] male Sprague-Dawley rats weighing 250–280 g and frozen until required. The rat lens homogenate was prepared according to Hayman and Kinoshita with some modifications. A partially purified enzyme with a specific activity of 6.5 U/mg was routinely used to test enzyme inhibition. The partially purified material was separated into 1.0 mL aliquots and stored at […]. rAR activity was assayed spectrophotometrically by measuring the decrease in NADPH absorption at 340 nm over a 4 min period with dl-glyceraldehyde substrate. Each 1.0 mL cuvette contained equal units of the enzyme, 0.10 M sodium phosphate buffer (pH 6.2), and 0.3 mM NADPH, with or without 10 mM substrate and an inhibitor [22, 23].

O=C(O)c1ccc(O)c(O)c1 [Compound 1, protocatechuic acid]
rAR inhibitory activity (in words) [1]: did not exhibit inhibitory activity
rAR inhibitory activity in the corresponding wells (rAR (aldose reductase)): 20.46%

O=C(/C=C/c1ccc(O)c(O)c1)O[C@@H]1C[C@](O)(C(=O)O)C[C@@H](O)[C@H]1O [Compound 2, chlorogenic acid]
pIC50 [1]: 5.50
rAR inhibitory activity in the corresponding wells (rAR (aldose reductase)): 34.50%

O=C(O)/C=C/c1ccc(O)c(O)c1 [Compound 3, caffeic acid]
rAR inhibitory activity (in words) [1]: weak inhibitory activity
rAR inhibitory activity in the corresponding wells (rAR (aldose reductase)): 21.31%

O=C(/C=C/c1ccc(O)c(O)c1)O[C@H](Cc1ccc(O)c(O)c1)C(=O)O [Compound 4, rosmarinic acid]
pIC50 ([1]; concentration at 50% inhibition, crude rat lens AR, pH 6.2): 5.56
rAR inhibitory activity in the corresponding wells (rAR (aldose reductase)): 53.31%

O=c1cc(-c2ccc(O)c(O)c2)oc2cc(O)cc(O)c12 [Compound 5, luteolin]
rAR inhibitory activity in the corresponding wells (rAR (aldose reductase)): 29.46%

COC(=O)[C@@H](Cc1ccc(O)c(O)c1)OC(=O)/C=C/c1ccc(O)c(O)c1 [Compound 6, methyl rosmarinic acid]
pIC50 [1]: 5.39
rAR inhibitory activity in the corresponding wells (rAR (aldose reductase)): 22.94%
